Measured values as given in ChEMBL document CHEMBL1141136, “Discovery of potent poly(ADP-ribose) polymerase-1 inhibitors from the modification of indeno[1,2-c]isoquinolinone” (J Med Chem, 2005).
pIC50: −log10 of the molar value. Several values for one entry are separate records, joined by “and”; a condition that tells them apart may be missing. Equal values may be shown once.

Biological target: Poly [ADP-ribose] polymerase 1 (Homo sapiens, UniProt P09874)
Experiment: Inhibitory concentration against purified poly ADP-ribose polymerase-1 done in PARP inhibition assay kit

Poly [ADP-ribose] polymerase 1, sequence (P09874 whole entry): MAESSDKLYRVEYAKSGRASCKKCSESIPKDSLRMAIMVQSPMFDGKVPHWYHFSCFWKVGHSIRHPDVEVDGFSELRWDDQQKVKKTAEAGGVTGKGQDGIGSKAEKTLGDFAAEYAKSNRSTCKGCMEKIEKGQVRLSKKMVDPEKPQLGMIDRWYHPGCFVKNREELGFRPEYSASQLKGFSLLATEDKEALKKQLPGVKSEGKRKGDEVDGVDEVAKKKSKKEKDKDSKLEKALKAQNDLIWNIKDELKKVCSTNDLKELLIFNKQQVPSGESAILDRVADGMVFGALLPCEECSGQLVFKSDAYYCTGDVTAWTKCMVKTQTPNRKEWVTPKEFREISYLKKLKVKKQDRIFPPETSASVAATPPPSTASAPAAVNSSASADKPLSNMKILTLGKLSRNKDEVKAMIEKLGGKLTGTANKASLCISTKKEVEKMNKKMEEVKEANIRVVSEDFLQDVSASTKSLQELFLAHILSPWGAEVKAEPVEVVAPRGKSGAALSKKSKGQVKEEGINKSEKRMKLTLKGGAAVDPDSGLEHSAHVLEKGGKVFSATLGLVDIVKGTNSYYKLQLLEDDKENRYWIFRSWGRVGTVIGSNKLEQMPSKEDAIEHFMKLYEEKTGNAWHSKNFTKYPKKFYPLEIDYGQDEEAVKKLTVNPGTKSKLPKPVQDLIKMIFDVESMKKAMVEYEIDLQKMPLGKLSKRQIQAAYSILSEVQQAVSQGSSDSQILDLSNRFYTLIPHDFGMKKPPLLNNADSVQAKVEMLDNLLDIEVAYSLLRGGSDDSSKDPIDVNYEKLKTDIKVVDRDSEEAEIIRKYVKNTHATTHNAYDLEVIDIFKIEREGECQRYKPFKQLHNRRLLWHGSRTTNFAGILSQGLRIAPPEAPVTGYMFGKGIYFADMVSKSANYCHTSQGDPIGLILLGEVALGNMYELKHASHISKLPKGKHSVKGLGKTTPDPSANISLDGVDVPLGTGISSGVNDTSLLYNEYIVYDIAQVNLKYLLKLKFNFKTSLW

| SMILES | pIC50 |
| --- | --- |
| O=c1[nH]c2c(c3ccccc13)Cc1cc([N+](=O)[O-])ccc1-2 | 6.52 |
| O=S(=O)(NCCCNN1CCOCC1)c1cc2c(cc1F)-c1nc(O)c3ccccc3c1C2 | 6.35 |
| O=c1[nH]c2c(c3ccccc13)Cc1cc(F)ccc1-2 | 6.19 |
| O=C(CN1CCOCC1)Nc1ccc2c(c1)-c1nc(O)c3ccccc3c1C2 | < 5.52 and 6.40 |
| Nc1ccc2c(c1)Cc1c-2[nH]c(=O)c2ccccc12 | 7.01 |
| O=c1[nH]c2c(c3ccccc13)Cc1ccccc1-2 | < 5.52 |
| Nc1ccc2c(c1)-c1[nH]c(=O)c3ccccc3c1C2 | 6.52 |
| CN1CCN(CC(=O)Nc2ccc3c(c2)-c2[nH]c(=O)c4ccccc4c2C3)CC1 | < 5.52 |
| O=c1[nH]c2c(c3ccccc13)Cc1cc(S(=O)(=O)NCCCn3ccnc3)ccc1-2 | 6.40 |
| O=c1[nH]c2c(c3ccccc13)Cc1cc(S(=O)(=O)NCCCc3ccccc3)ccc1-2 | < 5.52 |
| Oc1nc2c(c3ccccc13)Cc1ccc(F)cc1-2 | 6.30 |
| O=[N+]([O-])c1ccc2c(c1)-c1nc(O)c3ccccc3c1C2 | 6.30 |
| O=S(=O)(O)c1ccc2c(c1)Cc1c-2nc(O)c2ccccc12 | 6.15 |
| O=c1[nH]c2c(c3ccccc13)Cc1cc(S(=O)(=O)n3ccnc3)c(F)cc1-2 | 6.30 |
